{"source": "patent US20090092692A1", "about": "“The use of onion extracts to prevent and treat acute and chronic cardiac and vascular complications and their sequelae, as well as to resolve hematomas” (priority 2007, published 2009)", "origin": "cited, not measured here", "test_system": "platelet", "conditions": "low doses of aspirin, vasoocclusive disease"}
{"smiles": "CC(=O)Oc1ccccc1C(=O)O", "note": "[aspirin, Acetyl salicylic acid]", "values": [{"measurement": "incidence of major haemorrhage", "value": "less than 1%"}, {"measurement": "major outcome (death or further MI)", "value": "approximately 60%"}]}
